Laboratory results: ChEMBL document CHEMBL1201862, “PubChem BioAssay data set” (2004)
Active and inactive are the calls of the source.

Assays:
[1] = A cytotoxicity screen of small molecule inhibitors of the PhoP region in Salmonella typhi identified in the primary screen. [Related pubchem assays: 1850, 1864, 1985 ]; assay type: functional
[2] = biological target: T1, Short transient receptor potential channel 4 (Mus musculus, UniProt Q9QUQ5); experiment: mouse TRPC4 channel inhibitors, dose response, cell-based, HEK293 TRPC4/mu-opioid, Fluo-4 calcium (AID 434942); assay type: functional;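 further: potency of inhibitors blocking the TRPC4 calcium response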
T1 sequence (Q9QUQ5 whole entry): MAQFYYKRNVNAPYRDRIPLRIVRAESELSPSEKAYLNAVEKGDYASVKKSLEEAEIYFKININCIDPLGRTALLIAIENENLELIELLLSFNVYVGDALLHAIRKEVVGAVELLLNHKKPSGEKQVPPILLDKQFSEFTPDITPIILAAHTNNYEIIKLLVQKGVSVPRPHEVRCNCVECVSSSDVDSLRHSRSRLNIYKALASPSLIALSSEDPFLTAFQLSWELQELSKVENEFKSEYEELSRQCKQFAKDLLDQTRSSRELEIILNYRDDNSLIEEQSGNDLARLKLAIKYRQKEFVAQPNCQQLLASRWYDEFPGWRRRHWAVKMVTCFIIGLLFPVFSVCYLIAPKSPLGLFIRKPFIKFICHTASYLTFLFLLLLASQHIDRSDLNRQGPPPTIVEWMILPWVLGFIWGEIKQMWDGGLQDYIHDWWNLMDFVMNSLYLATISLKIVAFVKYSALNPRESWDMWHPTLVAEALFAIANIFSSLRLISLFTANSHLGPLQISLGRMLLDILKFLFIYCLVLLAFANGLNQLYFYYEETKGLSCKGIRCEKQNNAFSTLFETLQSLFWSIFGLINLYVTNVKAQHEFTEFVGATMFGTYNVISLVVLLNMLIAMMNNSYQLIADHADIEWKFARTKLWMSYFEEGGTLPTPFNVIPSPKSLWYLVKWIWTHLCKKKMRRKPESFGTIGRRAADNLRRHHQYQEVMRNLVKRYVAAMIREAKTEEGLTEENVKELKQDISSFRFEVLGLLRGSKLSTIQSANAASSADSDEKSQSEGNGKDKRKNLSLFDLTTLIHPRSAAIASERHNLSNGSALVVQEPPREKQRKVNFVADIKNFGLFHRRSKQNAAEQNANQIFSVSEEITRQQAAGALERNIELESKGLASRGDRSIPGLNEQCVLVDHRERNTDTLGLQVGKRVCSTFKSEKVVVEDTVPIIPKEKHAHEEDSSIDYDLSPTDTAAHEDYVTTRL

CAAX prenyl protease 1 = CAAX prenyl protease 1 (Saccharomyces cerevisiae S288c, UniProt P47154); experiment: Ste24 protease inhibitors, dose response, biochemical, S. cerevisiae, plate reader, cherry-pick (AID 488815)
Sequence of CAAX prenyl protease 1 (P47154 whole entry): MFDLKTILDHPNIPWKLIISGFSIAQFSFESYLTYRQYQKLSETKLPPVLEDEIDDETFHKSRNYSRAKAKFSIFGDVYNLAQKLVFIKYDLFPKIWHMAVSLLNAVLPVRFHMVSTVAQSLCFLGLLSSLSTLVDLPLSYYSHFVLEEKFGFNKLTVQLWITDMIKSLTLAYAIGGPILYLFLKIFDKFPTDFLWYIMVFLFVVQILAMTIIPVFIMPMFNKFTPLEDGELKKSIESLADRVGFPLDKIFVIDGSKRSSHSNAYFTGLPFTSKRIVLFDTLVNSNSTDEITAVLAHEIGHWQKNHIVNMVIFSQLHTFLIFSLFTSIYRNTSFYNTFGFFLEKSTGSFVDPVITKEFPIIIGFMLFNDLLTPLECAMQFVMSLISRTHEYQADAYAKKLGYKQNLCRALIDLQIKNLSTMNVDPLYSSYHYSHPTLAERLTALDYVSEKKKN

[3] = biological target: T2, DNA repair and recombination protein RAD54-like (Homo sapiens, UniProt Q92698); experiment: inhibitors of human RAD54 branch migration, confirmation, biochemical, fluorescence, cherry-picked samples, dose series (AID 651657); assay type: functional
T2 sequence (Q92698 whole entry): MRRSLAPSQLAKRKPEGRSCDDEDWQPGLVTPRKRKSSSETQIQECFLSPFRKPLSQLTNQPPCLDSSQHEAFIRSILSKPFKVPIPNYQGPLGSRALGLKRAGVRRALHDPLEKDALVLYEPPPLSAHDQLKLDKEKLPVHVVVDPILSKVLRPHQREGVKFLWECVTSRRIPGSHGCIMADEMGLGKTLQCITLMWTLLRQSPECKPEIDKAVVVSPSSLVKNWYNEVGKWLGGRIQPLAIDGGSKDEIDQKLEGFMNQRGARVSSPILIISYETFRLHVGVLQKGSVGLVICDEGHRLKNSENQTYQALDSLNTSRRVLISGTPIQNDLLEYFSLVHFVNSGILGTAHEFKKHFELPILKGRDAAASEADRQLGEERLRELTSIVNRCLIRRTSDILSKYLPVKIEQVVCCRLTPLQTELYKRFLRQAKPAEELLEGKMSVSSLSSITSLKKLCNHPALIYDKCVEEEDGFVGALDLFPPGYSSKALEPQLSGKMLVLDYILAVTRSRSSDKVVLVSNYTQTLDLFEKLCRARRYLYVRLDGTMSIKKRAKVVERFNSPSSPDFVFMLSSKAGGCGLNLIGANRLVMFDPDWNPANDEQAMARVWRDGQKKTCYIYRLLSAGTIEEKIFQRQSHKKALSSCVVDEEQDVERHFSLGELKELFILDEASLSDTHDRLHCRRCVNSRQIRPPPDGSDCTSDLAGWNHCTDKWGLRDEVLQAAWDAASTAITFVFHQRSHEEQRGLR

[4] = biological target: DNA repair protein RAD52 homolog (Homo sapiens, UniProt P43351); assay type: functional, biochemical
Sequence of DNA repair protein RAD52 homolog (P43351 whole entry): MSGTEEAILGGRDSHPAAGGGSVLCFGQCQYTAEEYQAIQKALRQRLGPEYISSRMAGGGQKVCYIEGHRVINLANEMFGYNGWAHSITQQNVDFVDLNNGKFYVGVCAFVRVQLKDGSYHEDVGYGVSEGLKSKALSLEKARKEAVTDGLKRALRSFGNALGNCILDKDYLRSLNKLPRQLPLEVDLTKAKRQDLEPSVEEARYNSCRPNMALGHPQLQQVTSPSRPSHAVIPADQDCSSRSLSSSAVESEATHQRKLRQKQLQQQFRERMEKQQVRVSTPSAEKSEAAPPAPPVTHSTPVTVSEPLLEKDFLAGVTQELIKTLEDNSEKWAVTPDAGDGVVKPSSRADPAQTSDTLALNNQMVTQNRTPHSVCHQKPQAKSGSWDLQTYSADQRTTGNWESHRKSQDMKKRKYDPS

[5] = NIH-3T3 fibroblast cytotoxicity, dose response, cytotoxicity control, cell-based, fluorescence, Alamar Blue, secondary assay (AID 2327); assay type: functional;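 further: NIH-3T3 mouse fibroblasts cultured with fluconazole at 8 µg/mL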
[6] = insulin promoter down-regulators in MIN6 cells, imaging, high-content screening, mouse beta cells (AID 1628); assay type: functional
cells [7] = assay type: functional, cell-based
[8] = cytotoxicity in MIN6 insulinoma cells, dose response, cytotoxicity control, cell-based, mouse insulinoma (AID 2122); assay type: functional;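 further: confirmatory high-throughput counterscreen run to flag cytotoxic compounds; mouse MIN-6 beta cells carrying an insulin promoter eGFP reporter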
[9] = C. albicans growth with fluconazole, confirmation, fluorescence, retest (AID 2467); assay type: functional, cell-based
[10] = inhibitors of intracellular T. cruzi replication, confirmation, NIH3T3 host cells, beta-gal luminescence (AID 2044); assay type: functional, cell-based;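 further: intracellular parasites grown in NIH/3T3 mouse fibroblasts as host cells; luminescent beta-galactosidase reporter signal from transgenic T. cruzi replicating inside host cells; inhibitors lower the luminescence signal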
cells [11] = assay type: functional, cell-based; remark: listed apart in the source
[12] = cytotoxicity toward NIH3T3 fibroblasts, dose response, counter-screen, cell-based, ATP luminescence, mouse fibroblasts (AID 2010); assay type: functional;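 further: cells exposed to compound for about 90 hours before reading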
[13] = biological target: Intestinal-type alkaline phosphatase (Mus musculus, UniProt P24822); experiment: PubChem AID 488874; assay type: functional
Sequence of Intestinal-type alkaline phosphatase (Mus musculus, UniProt P24822) (P24822 whole entry): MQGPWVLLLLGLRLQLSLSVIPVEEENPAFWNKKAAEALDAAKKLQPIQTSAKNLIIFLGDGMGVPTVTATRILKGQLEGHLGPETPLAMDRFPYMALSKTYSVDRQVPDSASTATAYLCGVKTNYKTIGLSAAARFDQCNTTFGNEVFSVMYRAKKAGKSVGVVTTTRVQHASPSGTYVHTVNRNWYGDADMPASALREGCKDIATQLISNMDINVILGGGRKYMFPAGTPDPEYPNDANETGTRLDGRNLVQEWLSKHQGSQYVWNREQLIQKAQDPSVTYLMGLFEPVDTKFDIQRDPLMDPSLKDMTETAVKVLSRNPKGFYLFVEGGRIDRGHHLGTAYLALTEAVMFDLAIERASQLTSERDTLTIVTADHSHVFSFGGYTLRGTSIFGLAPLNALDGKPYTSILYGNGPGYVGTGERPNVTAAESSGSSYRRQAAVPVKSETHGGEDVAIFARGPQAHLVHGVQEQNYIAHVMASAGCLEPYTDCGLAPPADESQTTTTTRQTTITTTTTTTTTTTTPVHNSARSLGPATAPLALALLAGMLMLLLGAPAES

[14] = biological target: T3, Intestinal-type alkaline phosphatase (Homo sapiens, UniProt P09923); experiment: human intestinal alkaline phosphatase activators, dose response, biochemical, luminescence, uHTS hits (AID 463120); assay type: functional
T3 sequence (P09923 whole entry): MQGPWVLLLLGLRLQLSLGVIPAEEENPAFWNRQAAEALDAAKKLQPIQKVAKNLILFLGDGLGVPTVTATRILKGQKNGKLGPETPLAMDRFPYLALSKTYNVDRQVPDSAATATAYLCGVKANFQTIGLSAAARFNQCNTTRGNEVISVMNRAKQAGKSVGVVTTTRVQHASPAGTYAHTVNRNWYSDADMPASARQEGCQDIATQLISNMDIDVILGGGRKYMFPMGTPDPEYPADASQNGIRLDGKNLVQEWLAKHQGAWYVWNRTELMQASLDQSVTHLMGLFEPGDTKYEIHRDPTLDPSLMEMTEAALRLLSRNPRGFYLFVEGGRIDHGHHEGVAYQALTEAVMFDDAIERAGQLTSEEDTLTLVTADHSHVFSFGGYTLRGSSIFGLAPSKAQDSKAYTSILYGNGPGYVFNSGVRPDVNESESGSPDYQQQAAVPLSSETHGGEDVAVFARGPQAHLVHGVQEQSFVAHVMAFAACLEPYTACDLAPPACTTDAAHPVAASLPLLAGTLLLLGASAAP

[15] = biological target: T3, Intestinal-type alkaline phosphatase; experiment: human IAP activators, dose response, biochemical, luminescent, uHTS hits, set 2 (AID 488817); assay type: functional;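 further: potency of activators that raise enzyme activity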
[16] = biological target: T4, Alkaline phosphatase, tissue-nonspecific isozyme (Homo sapiens, UniProt P05186); experiment: TNAP enzyme activators, dose response, selectivity assay for human IAP activator project, biochemical, TNAP isozyme, human IAP uHTS hits (AID 488886); assay type: functional;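 further: potency of compounds raising TNAP activity as a selectivity check on IAP activators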
T4 sequence (P05186 whole entry): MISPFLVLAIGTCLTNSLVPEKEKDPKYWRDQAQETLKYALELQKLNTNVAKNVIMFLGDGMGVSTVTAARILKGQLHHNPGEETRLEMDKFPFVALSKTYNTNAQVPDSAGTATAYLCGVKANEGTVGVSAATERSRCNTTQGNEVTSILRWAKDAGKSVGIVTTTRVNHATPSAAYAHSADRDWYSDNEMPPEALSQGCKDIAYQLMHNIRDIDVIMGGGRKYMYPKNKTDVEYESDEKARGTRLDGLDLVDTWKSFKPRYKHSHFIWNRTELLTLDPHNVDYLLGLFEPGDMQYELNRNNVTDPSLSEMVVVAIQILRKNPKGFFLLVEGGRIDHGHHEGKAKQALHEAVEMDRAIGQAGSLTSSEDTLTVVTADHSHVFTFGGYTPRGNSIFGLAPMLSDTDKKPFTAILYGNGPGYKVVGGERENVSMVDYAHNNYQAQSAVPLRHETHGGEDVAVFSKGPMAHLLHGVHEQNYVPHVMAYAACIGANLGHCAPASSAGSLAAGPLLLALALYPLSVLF

INS1 = experiment: beta cell apoptosis inhibitors, cytokine rescue, dose response, luminescence, retest (AID 449756); assay type: functional, cell-based; details: Rattus norvegicus;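 further: cell death triggered by IL-1 beta plus TNF-alpha plus IFN-gamma mixture; protective hits raise ATP signal compared with cytokine alone wells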
Cytochrome P450 2C19 = Cytochrome P450 2C19 (Homo sapiens, UniProt P33261); experiment: Cytochrome panel assay with activity outcomes. Panel member name: p450-cyp2c19 Compounds with AC50 equal or less than 10 uM are considered active; assay type: functional
Sequence of Cytochrome P450 2C19 (P33261 whole entry): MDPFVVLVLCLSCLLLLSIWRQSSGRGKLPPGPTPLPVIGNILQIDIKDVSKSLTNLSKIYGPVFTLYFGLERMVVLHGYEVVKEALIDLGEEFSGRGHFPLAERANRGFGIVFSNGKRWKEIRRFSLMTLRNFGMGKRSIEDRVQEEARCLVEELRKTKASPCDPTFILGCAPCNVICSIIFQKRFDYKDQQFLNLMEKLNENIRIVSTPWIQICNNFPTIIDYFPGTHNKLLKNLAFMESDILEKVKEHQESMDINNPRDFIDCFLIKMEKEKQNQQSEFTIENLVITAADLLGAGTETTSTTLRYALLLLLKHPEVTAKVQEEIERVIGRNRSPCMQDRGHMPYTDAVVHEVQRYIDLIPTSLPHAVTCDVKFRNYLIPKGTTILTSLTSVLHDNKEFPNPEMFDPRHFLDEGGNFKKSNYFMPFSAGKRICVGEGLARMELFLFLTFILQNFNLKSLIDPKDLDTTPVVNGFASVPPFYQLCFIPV

Cytochrome P450 3A4 = Cytochrome P450 3A4 (Homo sapiens, UniProt P08684);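 further: CYP3A4 tested as one member of a cytochrome P450 panel screen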
Sequence of Cytochrome P450 3A4 (P08684 whole entry): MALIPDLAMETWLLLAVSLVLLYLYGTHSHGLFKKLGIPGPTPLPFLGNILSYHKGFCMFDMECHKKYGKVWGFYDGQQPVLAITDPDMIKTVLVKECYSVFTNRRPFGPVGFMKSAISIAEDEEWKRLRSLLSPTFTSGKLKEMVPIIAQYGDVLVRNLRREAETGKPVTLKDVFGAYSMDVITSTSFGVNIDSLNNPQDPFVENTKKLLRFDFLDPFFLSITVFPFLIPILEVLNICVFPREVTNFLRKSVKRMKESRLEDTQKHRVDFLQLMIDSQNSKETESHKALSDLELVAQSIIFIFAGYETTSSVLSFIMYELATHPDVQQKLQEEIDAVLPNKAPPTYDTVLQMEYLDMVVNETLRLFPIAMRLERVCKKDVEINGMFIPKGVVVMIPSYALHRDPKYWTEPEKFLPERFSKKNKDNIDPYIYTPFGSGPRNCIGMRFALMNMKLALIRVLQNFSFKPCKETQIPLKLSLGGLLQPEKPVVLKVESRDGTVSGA

Cytochrome P450 2D6 = Cytochrome P450 2D6 (Homo sapiens, UniProt P10635);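 further: CYP2D6 member of a cytochrome P450 panel assay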
Sequence of Cytochrome P450 2D6 (P10635 whole entry): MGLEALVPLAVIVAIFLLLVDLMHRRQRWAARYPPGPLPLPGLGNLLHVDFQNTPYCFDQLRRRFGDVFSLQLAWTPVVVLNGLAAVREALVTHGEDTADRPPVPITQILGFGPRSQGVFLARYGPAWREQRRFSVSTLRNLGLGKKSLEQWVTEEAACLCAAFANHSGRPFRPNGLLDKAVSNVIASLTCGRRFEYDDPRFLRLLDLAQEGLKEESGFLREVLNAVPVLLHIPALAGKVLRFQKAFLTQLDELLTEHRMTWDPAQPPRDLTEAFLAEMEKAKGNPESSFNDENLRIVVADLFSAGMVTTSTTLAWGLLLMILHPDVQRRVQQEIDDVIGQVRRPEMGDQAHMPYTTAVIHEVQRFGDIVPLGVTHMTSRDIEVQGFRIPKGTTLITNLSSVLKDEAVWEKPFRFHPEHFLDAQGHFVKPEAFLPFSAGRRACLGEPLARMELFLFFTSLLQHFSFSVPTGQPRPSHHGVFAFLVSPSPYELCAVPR

[17] = biological target: Cyclin-dependent kinase 5/CDK5 activator 1 (Homo sapiens, UniProt Q00535); experiment: CDK5/p35 kinase inhibitors, dose response, biochemical, cherry-picked samples, set 2 (AID 504545)
Sequence of Cyclin-dependent kinase 5/CDK5 activator 1 (Q00535 whole entry): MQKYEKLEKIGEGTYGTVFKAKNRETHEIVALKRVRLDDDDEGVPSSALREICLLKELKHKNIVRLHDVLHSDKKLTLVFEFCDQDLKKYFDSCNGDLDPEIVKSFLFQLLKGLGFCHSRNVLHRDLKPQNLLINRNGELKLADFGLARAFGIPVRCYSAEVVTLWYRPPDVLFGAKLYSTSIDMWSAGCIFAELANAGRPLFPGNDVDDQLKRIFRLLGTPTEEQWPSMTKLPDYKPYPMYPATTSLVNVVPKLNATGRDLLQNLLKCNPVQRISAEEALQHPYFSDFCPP
Sequence of Cyclin-dependent kinase 5/CDK5 activator 1 (Q15078 whole entry, further chain): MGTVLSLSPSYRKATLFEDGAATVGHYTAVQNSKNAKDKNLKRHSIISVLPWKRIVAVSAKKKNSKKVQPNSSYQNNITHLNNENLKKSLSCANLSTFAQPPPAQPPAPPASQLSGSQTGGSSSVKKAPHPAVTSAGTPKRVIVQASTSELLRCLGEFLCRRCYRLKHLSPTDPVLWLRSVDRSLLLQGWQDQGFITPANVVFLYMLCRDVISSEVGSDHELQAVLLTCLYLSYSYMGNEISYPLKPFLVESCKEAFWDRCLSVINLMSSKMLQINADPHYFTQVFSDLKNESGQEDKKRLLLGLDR

[18] = biological target: Scavenger receptor class B member 1 (Mus musculus, UniProt Q61009); experiment: inhibitors of SR-BI mediated HDL lipid uptake, dose response, ldlA[mSR-BI] cells, fluorescence, cherry pick (AID 493194); assay type: functional, cell-based;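 further: cellular uptake of fluorescent DiI-labeled HDL measured as cell fluorescence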
Sequence of Scavenger receptor class B member 1 (Q61009 whole entry, the tested form may be a part): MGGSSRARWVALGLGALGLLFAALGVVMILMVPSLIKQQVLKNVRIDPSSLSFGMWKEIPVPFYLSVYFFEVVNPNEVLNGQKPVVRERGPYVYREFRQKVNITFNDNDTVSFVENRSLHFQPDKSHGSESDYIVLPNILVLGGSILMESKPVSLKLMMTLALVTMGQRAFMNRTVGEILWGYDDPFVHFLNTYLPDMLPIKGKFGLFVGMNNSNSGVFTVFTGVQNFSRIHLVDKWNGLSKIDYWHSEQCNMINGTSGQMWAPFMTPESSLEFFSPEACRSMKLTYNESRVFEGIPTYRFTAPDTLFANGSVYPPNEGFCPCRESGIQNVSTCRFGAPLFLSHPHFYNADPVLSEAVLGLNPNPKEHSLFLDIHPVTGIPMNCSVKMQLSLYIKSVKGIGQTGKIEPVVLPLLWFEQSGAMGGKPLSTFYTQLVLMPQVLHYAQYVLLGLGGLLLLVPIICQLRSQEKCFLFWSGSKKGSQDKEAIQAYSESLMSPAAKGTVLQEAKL

[19] = off-target signal loss in HeLa-CEM21 co-culture – HeLa F-luc CTL cells, cherry-picked, counter-screen for HIV-1 Env fusion inhibitor project, dose response (AID 652040); assay type: functional, cell-based;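 further: potency for signal decrease marking cytotoxic or nonspecific inhibition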
[20] = human group III sPLA2 inhibitors, dose response, biochemical, QFRET, IC50 (AID 743457);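 further: green fluorescence rise as the enzyme cleaves BODIPY PC-A2 in liposomes; potency for inhibition of the enzyme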

Compound: Cc1ccc2nc3c(c(N)c2c1)CCN3C
- EC50 [1]: > 50 µM (active)
- EC50 [2]: 2.37 µM (active)
- AC50 (CAAX prenyl protease 1): 16.6 µM (active)
- AC50 [3]: 21.7 µM (active)
- AC50 [4]: 15.4 µM (active)

Compound: CCOc1ccc(/C=N/NC(=O)c2[nH]ncc2Br)c(O)c1
- EC50 [5]: 14.9 µM (active)
- IC50 [6]: 3.83 µM (active)
- EC50 (cells [7]): 191 µM (active)
- IC50 [8]: 3.4 µM (active)
- EC50 [9]: > 38 µM (not active)
- EC50 [10]: 1.48 µM (active)
- EC50 (cells [11]): 7.33 µM (active)
- EC50 [12]: 10.3 µM (active)
- IC50 [13]: 73.8 µM (active)
- EC50 [14]: 6.69 µM (active)
- EC50 [15]: 8.97 µM (active)
- EC50 [16]: 11.5 µM (active)
- AC50 (INS1): 1.14 µM (active)

Compound: C[C@@H]1/C=C\CC(=O)OC[C@H](C)C(=O)N[C@@H](Cc2ccccc2)C(=O)OC1
- AC50 (Cytochrome P450 2C19): inconclusive
- AC50 (Cytochrome P450 3A4): 3.16 µM (inconclusive)
- AC50 (Cytochrome P450 2D6): inconclusive

Compound: Cc1nn(-c2nccs2)c2c1C(=O)CC(C)(C)C2Br (stereo not given)
- AC50 [17]: 7.37 µM (active)

Compound: CCOc1ccc2c(c1)-c1c(ssc1=S)C(C)(C)N2C(=O)c1ccco1
- AC50 [18]: 13.7 µM (active)
- AC50 [19]: 17.6 µM (active)
- IC50 [20]: 46.2 µM (inactive)
